Article PMC6270420, “Antibacterial Activity of Salicylanilide 4-(Trifluoromethyl)benzoates” (Molecules, 2013)
Values after ≈ are worked out from the molar mass of the structure shown. Read-outs that look alike come from different tables or passages of the source.

Key:
Mtb. 234/2005 = test: microbe, parasite or virus in culture; format: cell-based; conditions: Mycobacterium tuberculosis, read-out: MIC Mtb. 234/2005
[1] = tested on: Mycobacterium tuberculosis 331/88 (H37Rv); test: Antimycobacterial MIC micromethod, Šula's medium; format: cell-based
Mtb. Praha 131 (XDR-TB) = test: microbe, parasite or virus in culture; format: cell-based; conditions: Mycobacterium tuberculosis, read-out: MIC Mtb. Praha 131 (XDR-TB)
[2] = tested on: Mycobacterium kansasii 235/80; test: Antimycobacterial MIC micromethod; format: cell-based; conditions: read-out: MIC M. kansasii 235/80
Mtb. Praha 1 = test: microbe, parasite or virus in culture; format: cell-based; conditions: Mycobacterium tuberculosis, read-out: MIC Mtb. Praha 1
Mtb. 9449/2006 = test: microbe, parasite or virus in culture; format: cell-based; conditions: Mycobacterium tuberculosis, read-out: MIC Mtb. 9449/2006
Mtb. 7357/1988 = test: microbe, parasite or virus in culture; format: cell-based; conditions: Mycobacterium tuberculosis, read-out: MIC Mtb. 7357/1988
[3] = biological target: T1, mycobacterial isocitrate lyase (ICL1, Rv0467) (Mycobacterium tuberculosis, UniProt P9WKK7); test: Isocitrate lyase inhibition assay (ICL1); format: biochemical, Mycobacterium tuberculosis H37Rv; conditions: 10 μmol/L; read-out: % ICL inhibition at 10 μmol/L (± standard deviation)
T1 construct: His tag (from pET-28b(+)); made in house; host or cells: E. coli BL21(DE3), pET-28b(+) plasmid
T1 sequence (P9WKK7 1-428): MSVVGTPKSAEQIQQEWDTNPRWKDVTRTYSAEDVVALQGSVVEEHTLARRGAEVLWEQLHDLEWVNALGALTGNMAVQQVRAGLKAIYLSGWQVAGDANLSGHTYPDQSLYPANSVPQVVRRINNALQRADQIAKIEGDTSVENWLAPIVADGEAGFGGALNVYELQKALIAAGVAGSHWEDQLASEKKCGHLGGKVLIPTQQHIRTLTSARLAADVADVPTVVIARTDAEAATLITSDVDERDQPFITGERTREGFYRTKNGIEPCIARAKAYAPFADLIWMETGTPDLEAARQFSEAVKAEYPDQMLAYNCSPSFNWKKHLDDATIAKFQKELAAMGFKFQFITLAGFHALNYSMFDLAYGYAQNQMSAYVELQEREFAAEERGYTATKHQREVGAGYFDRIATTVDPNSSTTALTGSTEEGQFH

[4] = tested on: Mycobacterium avium 330/88; test: Antimycobacterial MIC micromethod; format: cell-based
Mtb. 53/2009 = test: microbe, parasite or virus in culture; format: cell-based; conditions: Mycobacterium tuberculosis, read-out: MIC Mtb. 53/2009
[5] = tested on: M. kansasii 6509/96 (clinically isolated strain); test: Antimycobacterial MIC micromethod; format: cell-based; conditions: Mycobacterium kansasii, read-out: MIC M. kansasii 6509/96
[6] = 336 h, 14 d, read-out: MIC Mtb. 331/88
[7] = 504 h, 21 d, read-out: MIC Mtb. 331/88

| Structure (SMILES) | MIC (Mtb. 234/2005; 336 h) [µM] | MIC (Mtb. 234/2005; 504 h) [µM] | MIC [1, 6] [µM] | MIC [1, 7] [µM] | MIC (Mtb. Praha 131 (XDR-TB); 336 h) [µM] | MIC (Mtb. Praha 131 (XDR-TB); 504 h) [µM] | MIC ([2]; 235/80, 168 h, 7 d) [µM] | MIC ([2]; 235/80, 336 h, 14 d) [µM] | MIC ([2]; 235/80, 504 h, 21 d) [µM] | MIC (Mtb. Praha 1; 336 h) [µM] | MIC (Mtb. Praha 1; 504 h) [µM] | MIC (Mtb. 9449/2006; 336 h) [µM] | MIC (Mtb. 9449/2006; 504 h) [µM] | MIC (Mtb. 7357/1988; 336 h) [µM] | inhibition at 10 µM [3] [%] | MIC ([4]; 330/88, 336 h, 14 d) [µM] | MIC ([4]; 330/88, 504 h, 21 d) [µM] | MIC ([5]; 168 h, 7 d) [µM] | MIC ([5]; 336 h, 14 d) [µM] | MIC ([5]; 504 h, 21 d) [µM] | further results |
| --- | --- | --- | --- | --- | --- | --- | --- | --- | --- | --- | --- | --- | --- | --- | --- | --- | --- | --- | --- | --- | --- |
| O=C(Oc1ccc(Cl)cc1C(=O)Nc1ccc(Br)cc1)c1ccc(C(F)(F)F)cc1 [1i] | 2 (≈ 0.997 µg/mL) | 2 (≈ 0.997 µg/mL) | 2 (≈ 0.997 µg/mL) | 2 (≈ 0.997 µg/mL) | 2 (≈ 0.997 µg/mL) | 2 (≈ 0.997 µg/mL) | 1 (≈ 0.499 µg/mL) | 4 (≈ 1.99 µg/mL) | 8 (≈ 3.99 µg/mL) | 2 (≈ 0.997 µg/mL) | 2 (≈ 0.997 µg/mL) | 2 (≈ 0.997 µg/mL) | 4 (≈ 1.99 µg/mL) | 2 (≈ 0.997 µg/mL) | 18 ± 1.2 | 8 (≈ 3.99 µg/mL) | 8 (≈ 3.99 µg/mL) | 2 (≈ 0.997 µg/mL) | 8 (≈ 3.99 µg/mL) | 8 (≈ 3.99 µg/mL) | MIC (Mtb. 7357/1988; 504 h): 4 µM (≈ 1.99 µg/mL); MIC (Mtb. 53/2009; 336 h): 4 µM (≈ 1.99 µg/mL); MIC (Mtb. 53/2009; 504 h): 4 µM (≈ 1.99 µg/mL) |
| NNC(=O)c1ccncc1 [INH, isoniazid, reference compound] |  |  | 0.5 to 1 (≈ 0.0686 to 0.137 µg/mL) | 0.5 to 1 (≈ 0.0686 to 0.137 µg/mL) |  |  |  |  |  |  |  |  |  |  | 0 | ≥ 250 | ≥ 250 |  |  |  | MIC ([1]; time not stated, read-out: MIC against M. tuberculosis): 1 µM (≈ 0.137 µg/mL); MIC ([2]; 235/80, 168 h): > 250 µM; MIC ([2]; 235/80, 336 h): > 250 µM; MIC ([2]; 235/80, 504 h): > 250 µM; MIC ([5]; 168 h): 2 to 4 µM (≈ 0.274 to 0.549 µg/mL); MIC ([5]; 336 h): 4 to 8 µM (≈ 0.549 to 1.1 µg/mL); MIC ([5]; 504 h): 8 to 16 µM (≈ 1.1 to 2.19 µg/mL) |
| O=C(Oc1ccc(Cl)cc1C(=O)Nc1cccc(Cl)c1)c1ccc(C(F)(F)F)cc1 [1a] | 4 (≈ 1.82 µg/mL) | 4 (≈ 1.82 µg/mL) | 2 (≈ 0.908 µg/mL) | 4 (≈ 1.82 µg/mL) | 4 (≈ 1.82 µg/mL) | 4 (≈ 1.82 µg/mL) | 0.5 (≈ 0.227 µg/mL) | 2 (≈ 0.908 µg/mL) | 4 (≈ 1.82 µg/mL) | 4 (≈ 1.82 µg/mL) | 4 (≈ 1.82 µg/mL) | 4 (≈ 1.82 µg/mL) | 4 (≈ 1.82 µg/mL) | 4 (≈ 1.82 µg/mL) | 18 ± 1.9 | 8 (≈ 3.63 µg/mL) | 16 (≈ 7.27 µg/mL) | 2 (≈ 0.908 µg/mL) | 8 (≈ 3.63 µg/mL) | 8 (≈ 3.63 µg/mL) | MIC (Mtb. 7357/1988; 504 h): 4 µM (≈ 1.82 µg/mL); MIC (Mtb. 53/2009; 336 h): 4 µM (≈ 1.82 µg/mL); MIC (Mtb. 53/2009; 504 h): 4 µM (≈ 1.82 µg/mL) |
| O=C(Oc1cc(Cl)ccc1C(=O)Nc1ccc(F)cc1)c1ccc(C(F)(F)F)cc1 [1n] |  |  | 4 (≈ 1.75 µg/mL) | 8 (≈ 3.5 µg/mL) |  |  | 2 (≈ 0.876 µg/mL) | 8 (≈ 3.5 µg/mL) | 8 (≈ 3.5 µg/mL) |  |  |  |  |  | 17 ± 1.3 | 4 (≈ 1.75 µg/mL) | 4 (≈ 1.75 µg/mL) | 4 (≈ 1.75 µg/mL) | 8 (≈ 3.5 µg/mL) | 8 (≈ 3.5 µg/mL) |  |
| O=C(Oc1ccc(Cl)cc1C(=O)Nc1ccc(Cl)cc1)c1ccc(C(F)(F)F)cc1 [1c] | 4 (≈ 1.82 µg/mL) | 4 (≈ 1.82 µg/mL) | 2 (≈ 0.908 µg/mL) | 2 (≈ 0.908 µg/mL) | 2 (≈ 0.908 µg/mL) | 2 (≈ 0.908 µg/mL) | 1 (≈ 0.454 µg/mL) | 2 (≈ 0.908 µg/mL) | 2 (≈ 0.908 µg/mL) | 2 (≈ 0.908 µg/mL) | 2 (≈ 0.908 µg/mL) | 2 (≈ 0.908 µg/mL) | 2 (≈ 0.908 µg/mL) | 2 (≈ 0.908 µg/mL) | 12 ± 2.7 | 4 (≈ 1.82 µg/mL) | 8 (≈ 3.63 µg/mL) | 1 (≈ 0.454 µg/mL) | 4 (≈ 1.82 µg/mL) | 4 (≈ 1.82 µg/mL) | MIC (Mtb. 7357/1988; 504 h): 2 µM (≈ 0.908 µg/mL); MIC (Mtb. 53/2009; 336 h): 4 µM (≈ 1.82 µg/mL); MIC (Mtb. 53/2009; 504 h): 4 µM (≈ 1.82 µg/mL) |
| O=C(O)CC[N+](=O)[O-] [3-NP, 3-nitropropionic acid, reference compound] |  |  |  |  |  |  |  |  |  |  |  |  |  |  | 25 ± 4.1 |  |  |  |  |  |  |
| Nc1ccc(C(=O)O)c(O)c1 [PAS, p-aminosalicylic acid, reference compound] |  |  | 62.5 (≈ 9.57 µg/mL) | 62.5 (≈ 9.57 µg/mL) |  |  |  |  |  |  |  |  |  |  |  | 32 (≈ 4.9 µg/mL) | 125 (≈ 19.1 µg/mL) |  |  |  | MIC ([2]; 235/80, 168 h): 125 µM (≈ 19.1 µg/mL); MIC ([2]; 235/80, 336 h): 1000 µM (≈ 153 µg/mL); MIC ([2]; 235/80, 504 h): > 1000 µM; MIC ([5]; 168 h): 32 µM (≈ 4.9 µg/mL); MIC ([5]; 336 h): 125 µM (≈ 19.1 µg/mL); MIC ([5]; 504 h): 500 µM (≈ 76.6 µg/mL) |
| O=C(Oc1ccc(Cl)cc1C(=O)Nc1cccc(C(F)(F)F)c1)c1ccc(C(F)(F)F)cc1 [1q] |  |  | 2 (≈ 0.976 µg/mL) | 2 (≈ 0.976 µg/mL) |  |  | 2 (≈ 0.976 µg/mL) | 4 (≈ 1.95 µg/mL) | 8 (≈ 3.9 µg/mL) |  |  |  |  |  | 19 ± 0.5 | 4 (≈ 1.95 µg/mL) | 16 (≈ 7.8 µg/mL) | 1 (≈ 0.488 µg/mL) | 4 (≈ 1.95 µg/mL) | 8 (≈ 3.9 µg/mL) |  |
| O=C(Oc1cc(Cl)ccc1C(=O)Nc1cccc(F)c1)c1ccc(C(F)(F)F)cc1 [1l] |  |  | 4 (≈ 1.75 µg/mL) | 4 (≈ 1.75 µg/mL) |  |  | 4 (≈ 1.75 µg/mL) | 8 (≈ 3.5 µg/mL) | 8 (≈ 3.5 µg/mL) |  |  |  |  |  | ≥ 20 | 8 (≈ 3.5 µg/mL) | 16 (≈ 7 µg/mL) | 8 (≈ 3.5 µg/mL) | 8 (≈ 3.5 µg/mL) | 16 (≈ 7 µg/mL) |  |
| O=C(Oc1cc(Cl)ccc1C(=O)Nc1ccc(Cl)cc1)c1ccc(C(F)(F)F)cc1 [1d] | 4 (≈ 1.82 µg/mL) | 4 (≈ 1.82 µg/mL) | 4 (≈ 1.82 µg/mL) | 4 (≈ 1.82 µg/mL) | 2 (≈ 0.908 µg/mL) | 4 (≈ 1.82 µg/mL) | 1 (≈ 0.454 µg/mL) | 4 (≈ 1.82 µg/mL) | 4 (≈ 1.82 µg/mL) | 2 (≈ 0.908 µg/mL) | 4 (≈ 1.82 µg/mL) | 4 (≈ 1.82 µg/mL) | 4 (≈ 1.82 µg/mL) | 4 (≈ 1.82 µg/mL) | 12 ± 2.3 | 4 (≈ 1.82 µg/mL) | 8 (≈ 3.63 µg/mL) | 1 (≈ 0.454 µg/mL) | 4 (≈ 1.82 µg/mL) | 4 (≈ 1.82 µg/mL) | MIC (Mtb. 7357/1988; 504 h): 4 µM (≈ 1.82 µg/mL); MIC (Mtb. 53/2009; 336 h): 4 µM (≈ 1.82 µg/mL); MIC (Mtb. 53/2009; 504 h): 4 µM (≈ 1.82 µg/mL) |
